Experimental data reported in patent US6653300B2, “Pyrazole compounds useful as protein kinase inhibitors” (Vertex Pharmaceuticals Incorporated, priority 2000, dated 2003).

How the values were obtained:
GSK-3β (AA 1-420) = biological target: T1, GSK-3β (AA 1-420) (Homo sapiens, UniProt P49841); test: Ki determination for the inhibition of GSK-3 (coupled enzyme system); type: biochemical; details: 20 μM ATP, 20 nM GSK-3β, 30° C.
T1 construct: GSK-3β (AA 1-420)
Procedure, shortened: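 GSK-3β (AA 1-420, 20 nM) was run in a pyruvate kinase/LDH-coupled NADH assay in 100 mM HEPES pH 7.5, 10 mM MgCl2, 25 mM NaCl, 1 mM DTT, 1.5% DMSO, with 300 μM phosphopeptide substrate. Compound (0.002–30 μM) was preincubated 10 min at 30° C, then 20 μM ATP was added.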

Aurora-2 = biological target: T2, Aurora-2 (Homo sapiens, UniProt O14965); test: Ki determination for the inhibition of Aurora-2 (coupled enzyme assay); type: biochemical; details: 70 nM Aurora-2, 30° C.
T2 sequence (O14965 1-403): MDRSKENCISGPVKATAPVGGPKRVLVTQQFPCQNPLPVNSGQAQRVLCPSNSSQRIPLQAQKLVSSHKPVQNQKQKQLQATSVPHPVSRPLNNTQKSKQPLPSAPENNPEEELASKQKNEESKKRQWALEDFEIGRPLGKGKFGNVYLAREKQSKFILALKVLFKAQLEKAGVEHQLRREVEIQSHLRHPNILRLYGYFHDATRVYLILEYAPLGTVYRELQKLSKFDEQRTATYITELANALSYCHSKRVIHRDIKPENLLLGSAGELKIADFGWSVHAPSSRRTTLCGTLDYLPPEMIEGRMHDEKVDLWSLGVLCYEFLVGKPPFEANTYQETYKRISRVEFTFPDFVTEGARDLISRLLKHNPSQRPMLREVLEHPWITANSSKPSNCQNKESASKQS
Method: Compounds were screened in the following manner for their ability to inhibit Aurora-2 using a standard coupled enzyme assay (Fox et al (1998) Protein Sci 7, 2249).
To an assay stock buffer solution containing 0.1M HEPES 7.5, 10 mM MgCl2, 1 mM DTT, 25 mM NaCl, 2.5 mM phosphoenolpyruvate, […], 30 mg/ml pyruvate kinase, 10 mg/ml lactate dehydrogenase, […], and 800 μM peptide (LRRASLG, American Peptide, Sunnyvale, Calif.) was added a DMSO solution of a compound of the present invention to a final concentration of 30 μM. The resulting mixture was incubated at 30° C. for 10 min. The reaction was initiated by the addition of 10 μL of Aurora-2 stock solution to give a final concentration of 70 nM in the assay. The rates of reaction were obtained by monitoring absorbance at 340 nm over a 5 minute read time at 30° C. using a BioRad Ultramark plate reader (Hercules, Calif.). The Ki values were determined from the rate data as a function of inhibitor concentration.

T1 sequence (P49841 whole entry, the tested form may be a part): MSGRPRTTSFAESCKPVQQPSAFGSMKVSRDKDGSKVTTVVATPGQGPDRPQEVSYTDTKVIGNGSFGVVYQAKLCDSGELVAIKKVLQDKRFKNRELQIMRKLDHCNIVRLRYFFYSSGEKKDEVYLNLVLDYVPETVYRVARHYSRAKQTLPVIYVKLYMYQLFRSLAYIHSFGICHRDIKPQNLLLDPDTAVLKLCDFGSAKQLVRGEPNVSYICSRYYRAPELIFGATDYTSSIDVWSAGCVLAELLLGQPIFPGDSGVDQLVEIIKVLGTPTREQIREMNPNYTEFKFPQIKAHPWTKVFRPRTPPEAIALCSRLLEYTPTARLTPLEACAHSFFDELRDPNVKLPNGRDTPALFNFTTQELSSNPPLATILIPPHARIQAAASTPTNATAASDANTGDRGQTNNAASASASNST

## O=C(O)COc1ccc(Nc2nc(Nc3cc(C4CC4)[nH]n3)c3ccccc3n2)cc1 [IIc-30, [2-(4-Carboxymethoxyphenylamino)-quinazolin-4-yl]-(5-cyclopropyl-2H-pyrazol-3-yl)-amine]
GSK-3β (AA 1-420)
  Ki: < 100 nM
Aurora-2
  Ki: < 100 nM
other
  melting point: > 250 °C

## Cc1cc(Nc2nc(Sc3ccc(NC(=O)CN(C)C(=O)OC(C)(C)C)cc3)nc3ccccc23)n[nH]1 [IIa-76, (2-{4-[2-(tert-Butoxycarbonyl-methyl-amino)-acetylamino]-phenylsulfanyl}-quinazolin-4-yl)-(5-methyl-2H-pyrazol-3-yl)-amine]
GSK-3β (AA 1-420)
  Ki: 1000 to 7000 nM
Aurora-2
  Ki: < 100 nM
other
  melting point: 228 to 229 °C (dec.)

## Cc1cc(Nc2nc(Nc3ccc(C#N)cc3)nc3ccccc23)n[nH]1 [IIc-61, [2-(4-Cyanophenylamino)-quinazolin-4-yl]-(5-methyl-2H-pyrazol-3-yl)-amine]
GSK-3β (AA 1-420)
  Ki: < 100 nM
Aurora-2
  Ki: < 100 nM
other
  melting point: 293 to 298 °C

## Cc1cc(Nc2nc(Sc3ccc(C(=O)NCCN(C)C)cc3)nc3ccccc23)n[nH]1 [IIa-67, {2-[4-(2-Dimethylamino-ethylcarbamoyl)-phenylsulfanyl]-quinazolin-4-yl}-(5-methyl-2H-pyrazol-3-yl)-amine]
GSK-3β (AA 1-420)
  Ki: 1000 to 7000 nM
Aurora-2
  Ki: 100 to 1000 nM
other
  melting point: 192 to 193 °C

## CC(=O)Nc1ccc(Sc2nc(Nc3cc(C)[nH]n3)c3cccc(OCCCN4CCOCC4)c3n2)cc1 [IIa-41, [2-(4-Acetamidophenylsulfanyl)-8-(3-morpholin-4-yl-propoxy)-quinazolin-4-yl]-(5-methyl-2H-pyrazol-3-yl)-amine]
GSK-3β (AA 1-420)
  Ki: 100 to 1000 nM
Aurora-2
  Ki: < 100 nM
other
  melting point: 262 to 264 °C

## Cc1cc(Nc2nc(Nc3ccc(Cl)cc3)nc3ccccc23)n[nH]1 [IIc-12, [2-(4-Chlorophenylamino)-quinazolin-4-yl]-(5-methyl-2H-pyrazol-3-yl)-amine]
GSK-3β (AA 1-420)
  Ki: < 100 nM
Aurora-2
  Ki: < 100 nM
other
  melting point: > 250 °C

## COc1ccc(Nc2nc(Nc3cc(C4CC4)[nH]n3)c3ccccc3n2)cn1 [IIc-20, (5-Cyclopropyl-2H-pyrazol-3-yl)-[2-(6-methoxypyridin-3-ylamino)-quinazolin-4-yl]-amine]
GSK-3β (AA 1-420)
  Ki: < 100 nM
Aurora-2
  Ki: < 100 nM
other
  melting point: 120 °C

## COC(=O)Cc1ccc(Nc2nc(Nc3cc(C)[nH]n3)c3ccccc3n2)cc1C [IIc-64, [2-(4-Methoxycarbonylmethyl-3-methylphenylamino)-quinazolin-4-yl]-(5-methyl-2H-pyrazol-3-yl)-amine]
GSK-3β (AA 1-420)
  Ki: 100 to 1000 nM
Aurora-2
  Ki: < 100 nM
other
  melting point: 245 to 246 °C

## Cc1cc(Nc2nc(Oc3ccc4c(c3)OCO4)nc3ccccc23)n[nH]1 [IIb-8, [2-(Benzo[1,3]dioxol-5-yloxy)-quinazolin-4-yl]-(5-methyl-2H-pyrazol-3-yl)-amine]
GSK-3β (AA 1-420)
  Ki: < 100 nM
Aurora-2
  Ki: < 100 nM
other
  melting point: 296 to 299 °C (dec.)

## CS(=O)(=O)Nc1ccc(Sc2nc(Nc3cc(C4CC4)[nH]n3)c3ccccc3n2)cc1 [IIa-61, (5-Cycloprpyl-2H-pyrazol-3-yl)-[2-(4-methylsulfonylamino-phenylsulfanyl)-quinazolin-4-yl]-amine]
GSK-3β (AA 1-420)
  Ki: < 100 nM
Aurora-2
  Ki: < 100 nM
other
  melting point: 235 to 238 °C

## CCc1cc(Nc2nc(Nc3cc(CC)[nH]n3)c3ccccc3n2)n[nH]1 [IIc-69, (5-Ethyl-2H-pyrazol-3-yl)-[2-(5-ethyl-2H-pyrazol-3-ylamino)-quinazolin-4-yl]-amine]
GSK-3β (AA 1-420)
  Ki: 1000 to 7000 nM
Aurora-2
  Ki: < 100 nM
other
  melting point: 248 to 252 °C

## c1ccc(Cc2nc(Nc3cc(C4CC4)[nH]n3)c3ccccc3n2)cc1 [IId-3, (2-Benzyl-quinazolin-4-yl)-(5-cyclopropyl-2H-pyrazol-3-yl)-amine]
GSK-3β (AA 1-420)
  Ki: 1000 to 7000 nM
Aurora-2
  Ki: < 100 nM
other
  melting point: 219 to 221 °C

## Cc1cc(Nc2nc(Sc3ccc(NC(=O)C(C)C)cc3)nc3ccccc23)n[nH]1 [IIa-49, [2-(4-Isobutyrylamino-phenylsulfanyl)-quinazolin-4-yl]-(5-methyl-2H-pyrazol-3-yl)-amine]
GSK-3β (AA 1-420)
  Ki: 1000 to 7000 nM
Aurora-2
  Ki: < 100 nM
other
  melting point: 285 to 287 °C

## Cc1cc(Nc2nc(Sc3ccccc3O)nc3ccccc23)n[nH]1 [IIa-11, [2-(2-Hydroxyphenylsulfanyl)-quinazolin-4-yl]-(5-methyl-2H-pyrazol-3-yl)-amine]
GSK-3β (AA 1-420)
  Ki: < 100 nM
Aurora-2
  Ki: < 100 nM
other
  melting point: 273 to 275 °C

## COc1cccc(Oc2nc(Nc3cc(C)[nH]n3)c3ccccc3n2)c1 [IIb-6, [2-(3-Methoxyphenoxy)-quinazolin-4-yl]-(5-methyl-2H-pyrazol-3-yl)-amine]
Aurora-2
  Ki: < 100 nM
other
  melting point: 277 to 278 °C

## CC(=O)Nc1ccc(Sc2nc(Nc3cc(C)[nH]n3)c3cccc(OCCCN(C)C)c3n2)cc1 [IIa-73, [2-(4-Acetamidophenylsulfanyl)-8-(3-dimethylamino-propoxy)-quinazolin-4-yl]-(5-methyl-2H-pyrazol-3-yl)-amine]
Aurora-2
  Ki: < 100 nM
other
  melting point: 170 to 172 °C

## CC(=O)Nc1ccc(Sc2nc(Nc3cc(C)[nH]n3)c3ccc(N)cc3n2)cc1 [IIa-59, [2-(4-Acetamido-phenylsulfanyl)-7-aminoquinazolin-4-yl]-(5-methyl-2H-pyrazol-3-yl)-amine]
Aurora-2
  Ki: < 100 nM
other
  melting point: 264 to 265 °C

## Cc1cc(Nc2nc(Sc3ccc(NC(=O)CC(C)C)cc3)nc3ccccc23)n[nH]1 [IIa-57, [2-(4-Isobutanecarbonylamino-phenylsulfanyl)-quinazolin-4-yl]-(5-methyl-2H-pyrazol-3-yl)-amine]
Aurora-2
  Ki: < 100 nM
other
  melting point: 281 to 282 °C

## CCc1cc(Nc2cc(C)[nH]n2)nc(Nc2nc3ccccc3[nH]2)n1 [IIIc-10, [2-(Benzimidazol-2-ylamino-)6-ethyl-pyrimidin-4-yl]-(5-methyl-2H-pyrazol-3-yl)-amine]
GSK-3β (AA 1-420)
  Ki: 1000 to 7000 nM
Aurora-2
  Ki: 1000 to 10000 nM

## CCC(=O)Nc1ccc(Oc2nc(Nc3cc(C)[nH]n3)cc(-c3ccccc3)n2)cc1 [IIIb-15]
GSK-3β (AA 1-420)
  Ki: 100 to 1000 nM
Aurora-2
  Ki: 100 to 1000 nM

## c1ccc(Nc2nc(Nc3cc(-c4ccco4)[nH]n3)cc(-c3ccccc3)n2)cc1 [IIIc-15, [5-(Furan-2-yl)-2H-pyrazol-3-yl]-(6-phenyl-2-phenylamino-pyrimidin-4-yl)-amine]
GSK-3β (AA 1-420)
  Ki: < 100 nM
Aurora-2
  Ki: < 100 nM

## c1ccc(-c2cccc(Nc3nc(Nc4cc(C5CC5)[nH]n4)c4ccccc4n3)c2)cc1 [IIc-46, [2-(Biphenyl-3-ylamino)-quinazolin-4-yl]-(5-cyclopropyl-2H-pyrazol-3-yl)-amine]
Aurora-2
  Ki: < 100 nM
other
  melting point: 153 °C

## c1ccc(CCNc2nc(Nc3cc(C4CC4)[nH]n3)c3ccccc3n2)cc1 [IIc-28, (5-Cyclopropyl-2H-pyrazol-3-yl)-(2-phenetylamino-quinazolin-4-yl)-amine]
GSK-3β (AA 1-420)
  Ki: 100 to 1000 nM
Aurora-2
  Ki: < 100 nM

## FC(F)(F)c1cccc(Nc2nc(Nc3n[nH]c4ccccc34)c3ccccc3n2)c1 [IIc-71, (1H-Indazol-3-yl)-[2-(3-trifluoromethylphenylamino)-quinazolin-4-yl]-amine]
GSK-3β (AA 1-420)
  Ki: 1000 to 7000 nM
Aurora-2
  Ki: 1000 to 10000 nM

## CC(=O)Nc1ccc(Sc2nc(Nc3cc(C)[nH]n3)c3ccc(OCCCN(C)C)cc3n2)cc1 [IIa-75, [2-(4-Acetamidophenylsulfanyl)-7-(3-dimethylamino-propoxy)-quinazolin-4-yl]-(5-methyl-2H-pyrazol-3-yl)-amine]
Aurora-2
  Ki: < 100 nM
other
  melting point: 249 to 250 °C

## Cc1cc(Nc2nc(Oc3ccc4ccccc4c3)nc3ccccc23)n[nH]1 [IIb-2, (5-Methyl-2H-pyrazol-3-yl)-[2-(naphthalen-2-yloxy)-quinazolin-4-yl]-amine]
Aurora-2
  Ki: < 100 nM
other
  melting point: > 300 °C

## Cc1cc(Nc2cc(-c3ccco3)[nH]n2)nc(Nc2ccc(Cl)cc2)n1 [IIIc-9, [2-(4-Chlorophenyl)amino-6-methyl-pyrimidin-4-yl]-[5-(furan-2-yl)-2H-pyrazol-3-yl]-amine]
GSK-3β (AA 1-420)
  Ki: < 100 nM
Aurora-2
  Ki: 100 to 1000 nM

## Cc1cc(Nc2nc(Nc3cccc(Cl)c3)nc3ccccc23)n[nH]1 [IIc-11, [2-(3-Chlorophenylamino)-quinazolin-4-yl]-(5-methyl-2H-pyrazol-3-yl)-amine]
GSK-3β (AA 1-420)
  Ki: < 100 nM
Aurora-2
  Ki: < 100 nM

## Cc1cc(Nc2nc(Sc3ccc(NC(=O)CN4CCOCC4)cc3)nc3ccccc23)n[nH]1 [IIa-60, (5-Methyl-2H-pyrazol-3-yl)-{2-[4-(2-morpholin-4-yl-acetylamino)-phenylsulfanyl]-quinazolin-4-yl}-amine]
Aurora-2
  Ki: < 100 nM
other
  melting point: 266 to 267 °C
